Results published in the supplement of paper PMC10307832.

What was measured:
Assay in all cases: relative viability (nuclei count vs DMSO), 5 days (fraction); higher = more cells survive
Erlotinib + Linsitinib = compound: C#Cc1cccc(Nc2ncnc3cc(OCCOC)c(OCCOC)cc23)c1 [Erlotinib] + C[C@]1(O)C[C@@H](c2nc(-c3ccc4ccc(-c5ccccc5)nc4c3)c3c(N)nccn32)C1 [Linsitinib] (partner 1 µM)
Summary of the method: (§1)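 Lung cancer cell lines were pin-tool dosed in 1536-well plates on the day after seeding, with either a lone drug or a fixed anchor-drug dose plus five library-drug doses (not always all listed) in √10 steps. Nuclei were counted on 4× images after 5 days. Relative viability is the ratio of treated-well to vehicle-well nuclei counts, with each value a median of duplicate plates.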

AT9283 + Trametinib = compound: O=C(Nc1c[nH]nc1-c1nc2ccc(CN3CCOCC3)cc2[nH]1)NC1CC1 [AT9283] + CC(=O)Nc1cccc(-n2c(=O)n(C3CC3)c(=O)c3c(Nc4ccc(I)cc4F)n(C)c(=O)c(C)c32)c1 [Trametinib] (partner 0.02 µM)
Summary of the method: as §1

AT9283 + Lapatinib = compound: O=C(Nc1c[nH]nc1-c1nc2ccc(CN3CCOCC3)cc2[nH]1)NC1CC1 [AT9283] + CS(=O)(=O)CCNCc1ccc(-c2ccc3ncnc(Nc4ccc(OCc5cccc(F)c5)c(Cl)c4)c3c2)o1 [Lapatinib] (partner 2 µM)
Summary of the method: as §1

AT9283 + Dasatinib = compound: O=C(Nc1c[nH]nc1-c1nc2ccc(CN3CCOCC3)cc2[nH]1)NC1CC1 [AT9283] + Cc1nc(Nc2ncc(C(=O)Nc3c(C)cccc3Cl)s2)cc(N2CCN(CCO)CC2)n1 [Dasatinib] (partner 0.075 µM)
Summary of the method: as §1

AT9283 + AZD7762 = compound: O=C(Nc1c[nH]nc1-c1nc2ccc(CN3CCOCC3)cc2[nH]1)NC1CC1 [AT9283] + NC(=O)Nc1cc(-c2cccc(F)c2)sc1C(=O)N[C@H]1CCCNC1 [AZD7762] (partner 0.2 µM)
Summary of the method: as §1

Cell Line	relative viability (Erlotinib + Linsitinib; first compound 0.02 µM)	relative viability (Erlotinib + Linsitinib; first compound 0.2 µM)	relative viability (Erlotinib + Linsitinib; first compound 0.6325 µM)	relative viability (Erlotinib + Linsitinib; first compound 2 µM)	relative viability (AT9283 + Trametinib; first compound 0.003 µM)	relative viability (AT9283 + Trametinib; first compound 0.03 µM)	relative viability (AT9283 + Trametinib; first compound 0.09487 µM)	relative viability (AT9283 + Trametinib; first compound 0.3 µM)	relative viability (AT9283 + Lapatinib; first compound 0.003 µM)	relative viability (AT9283 + Lapatinib; first compound 0.03 µM)	relative viability (AT9283 + Lapatinib; first compound 0.09487 µM)	relative viability (AT9283 + Lapatinib; first compound 0.3 µM)	relative viability (AT9283 + Dasatinib; first compound 0.003 µM)	relative viability (AT9283 + Dasatinib; first compound 0.03 µM)	relative viability (AT9283 + Dasatinib; first compound 0.09487 µM)	relative viability (AT9283 + Dasatinib; first compound 0.3 µM)	relative viability (AT9283 + AZD7762; first compound 0.003 µM)	relative viability (AT9283 + AZD7762; first compound 0.03 µM)	relative viability (AT9283 + AZD7762; first compound 0.09487 µM)	relative viability (AT9283 + AZD7762; first compound 0.3 µM)
201T	0.968	0.933	1.01	0.854	0.734	0.753	0.388	0.338	0.816	0.96	0.904	0.409	0.456	0.592	0.323	0.292	0.609	0.527	0.45	0.31
LOU-NH91	0.592	0.544	0.487		0.801	0.788	0.536	0.493	0.688	0.646	0.566	0.419	0.524	0.562	0.366	0.296	0.735	0.669	0.479	0.444
NCI-H1395	1.1	1.1	1.23	1.06	1.07	0.865	0.444	0.341	0.904	0.703	0.412	0.427	0.434	0.424	0.292	0.287	0.411	0.361	0.333	0.335
LXF-289	0.966	0.921	0.934	0.874	0.695	0.686	0.254	0.145	0.901	0.691	0.163	0.135	0.227	0.106	0.0281	0.029	1.11	0.782	0.141	0.096
NCI-H23	0.643	0.506	0.752	0.604	0.377	0.291	0.281	0.19	0.968	0.395	0.225	0.207	0.726	0.67	0.464	0.327	0.265	0.295	0.179	0.128
NCI-H1975	0.954	0.974	0.991		0.323	0.777	0.337	0.234	0.891	0.225	0.208	0.196	0.401	0.461	0.389	0.237	0.7	0.711	0.622	0.458
NCI-H3122	1.04	1.06	1.02	0.961	0.277	0.247	0.168	0.097	1.07	0.964	0.446	0.328	0.763	0.664	0.111	0.0513	0.958	0.917	0.363	0.17
NCI-H727	0.284	0.349	0.282	0.232	0.378	0.418	0.359	0.347	0.847	0.435	0.28	0.249	0.423	0.467	0.314	0.245	0.684	0.574	0.37	0.383
